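Each compound was tested at five concentrations against cells in 96-well plates for 48 hours. TGI: total growth inhibition.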 Where a SMILES comes first, the peptide text is derived from it. The star is where a group is joined. OSu = O=C1CCC(=O)N1O*
Key:
Assay in all cases: NCI-60 cell line screen, 48 h
786-0 renal = test system: 786-0 renal
A549 NSCLC = test system: A549 NSCLC
CAKI-1 renal = test system: CAKI-1 renal
DU-145 prostate = test system: DU-145 prostate
SF-539 CNS = test system: SF-539 CNS
IGROV1 ovarian = test system: IGROV1 ovarian

Row | SMILES | TGI (786-0 renal) [µM] | TGI (A549 NSCLC) [µM] | TGI (CAKI-1 renal) [µM] | TGI (DU-145 prostate) [µM] | TGI (SF-539 CNS) [µM] | TGI (IGROV1 ovarian) [µM]
1 | COc1ccc2oc3c(C)cc4c(OC)nnc(OC)c4c3c2c1 | > 100 | > 100 | > 100 | > 100 | > 100 | –
2 | CCOC(=O)/C(C#N)=C/c1coc2cc(C)cc(C)c2c1=O | > 100 | > 100 | > 100 | > 100 | > 100 | > 100
3 | CCOC(=O)c1cc(-c2ccc(OC)cc2)c([N+](=O)[O-])n1C | > 10 | > 10 | – | > 10 | > 10 | > 10
4 | CCN(CC)CCCNC(=O)c1cc(-c2nccn2C)nc2ccccc12 | > 100 | > 100 | > 100 | > 100 | > 100 | > 100
5 | N#C/C(N)=C(\C#N)NC=NCCO | > 100 | > 100 | > 100 | > 100 | > 100 | > 100
6 | CCOC(=O)c1cn2c(n1)sc1cc(F)ccc12 | > 100 | > 100 | > 100 | > 100 | > 100 | > 100
7 | CCOC(=O)C12OC(OCC)(CC1(OCC)OCC)C1(CC1)C2=O (stereo not given) | > 100 | > 100 | > 100 | > 100 | > 100 | > 100
8 | CC(N)/C(N)=N/O (stereo not given) | > 100 | > 100 | > 100 | > 100 | > 100 | > 100
9 | CCCCCCc1cc2cc(-c3cn4ccsc4n3)c(=O)oc2cc1O | > 100 | > 100 | > 95.9 | > 100 | > 100 | > 100
10 | NCCCCC(NC(=O)C(N)Cc1ccc(O)cc1)C(=O)NC(CCCCN)C(=O)NC(CCCCN)C(=O)ON1C(=O)CCC1=O (stereo not given) (H-YKKK-OSu; configuration not given here) | > 100 | > 100 | – | – | – | > 100
11 | N#Cc1nc(-c2cnccn2)oc1N | > 100 | > 100 | > 100 | > 100 | – | > 100
12 | NC(Cc1ccccc1)C(=O)NC(Cc1ccccc1)NC(=O)C(Cc1c[nH]c2ccccc12)C(=O)O (stereo not given) | > 100 | > 100 | > 100 | > 100 | > 100 | > 100
13 | O=c1[nH]c(=O)n(C2COC(CO)C2O)cc1F (stereo not given) | > 100 | > 100 | > 100 | > 100 | > 100 | > 100
14 | O=C(O)C1C2c3ccccc3C(c3ccccc32)C1C(=O)NCC1CC1 (stereo not given) | > 100 | > 100 | > 100 | > 100 | > 100 | > 100
15 | CON(C)C(=O)C(C)N(Cc1ccccc1)Cc1ccccc1 (stereo not given) | > 100 | > 100 | – | > 100 | > 100 | > 100
16 | COc1cc2c(/C=C3/C(=O)Nc4cccc(Cl)c43)c(Cl)[nH]c2cc1C | 4.15 | 6.23 | 7.3 | 5.66 | 3.38 | 11.8
17 | Cc1ccc(S[C@@H](C)[C@@](O)(CF)CN(Cc2ccccc2)C(=O)C(F)(F)F)cc1 | 35.4 | 32.1 | 99.7 | 53.2 | – | > 100
18 | O=C(O)Cc1ccc([N+](=O)[O-])cc1[N+](=O)[O-] | > 100 | > 100 | > 100 | > 100 | > 100 | > 100
19 | CC(=O)CC1CCC(=O)/C=C/C(=O)OC(CC(C)=O)CCC(=O)/C=C/C(=O)O1 (stereo not given) | 10.6 | 43 | 20 | 35 | 34.9 | 32.1
20 | Cc1cc(OC(=O)Nc2cccc3ccccc23)c(C(C)C)cc1C(=S)Nc1ccccc1 | 56.6 | > 100 | 54.7 | 82 | 36.9 | 30.4
21 | CCOC(=O)CCC(NC(=O)C(N)Cc1ccc(N(CCCl)CCCl)cc1)C(=O)OCC (stereo not given) | 2.08 | > 33.4 | 3.08 | 2.34 | 3.38 | 3.93
22 | C=C1c2nc3ccccc3n2C=C(c2ccc(OC)cc2)N1c1ccc(OC)cc1 | > 100 | > 100 | 19.3 | > 100 | 64.8 | 94.3
23 | CCOC(=O)C(=[N+]=[N-])C(=O)CN1C(=O)c2ccccc2C1=O | > 100 | > 100 | > 100 | > 100 | > 100 | > 100

Reference: PubChem BioAssay (NCI)
